The target in series [1] is Coagulation factor FXa (Homo sapiens, UniProt P00742). The series is described as follows: Inhibitory activity on coagulation factor FXa (chromogenic substrate CS-11(22)). The format is biochemical. Particulars: sample 1 mg/mL; for Inhibitory effect on coagulation factor FXa: incubated at 37° C. for 1 h. Here is the method: (§1) • a. 100 μL of FXa (5 nM) and 50 μL of the sulfate gluco-galacto-oligosaccharide sample (1 mg/mL) were mixed in a 96-well plate, incubated at 37° C. for 1 h, added with 50 μL of a substrate CS-11(22) (1.77 mM), and detected at a wavelength of 405 nm for 60 min, detecting once every minute. • b. 100 μL of HFXIa (human coagulation factor XIa, 1 nM) and 50 μL of the sulfate gluco-galacto-oligosaccharide sample (1 mg/mL) were mixed in a 96-well plate, incubated at 37° C. for 1 h, added with 50 μL of a substrate S2366 (1 mM), and detected at a wavelength of 405 nm for 60 min, detecting once every minute. • c. 100 μL of FXIIa (4 nM) and 50 μL of the sulfate gluco-galacto-oligosaccharide sample (1 mg/mL) were mixed in a 96-well plate, incubated 37° C. for 1 h, added with 50 μL of a substrate Pefachrome FXIIa/TH5253 (1 mM), and detected at a wavelength of 405 nm for 60 min, detecting once every minute. • d. 100 μL of Trypsin (8.3 nM) and 50 μL of the sulfate gluco-galacto-oligosaccharide sample (1 mg/mL) were mixed in a 96-well plate, incubated 37° C. for 1 h, added with 50 μL of a substrate CS-11(22) (1 mM), and detected at a wavelength of 405 nm for 60 min, detecting once every minute. • e. 100 μL of Thrombin (0.2 IU/mL) and 50 μL of the sulfate gluco-galacto-oligosaccharide sample (1 mg/mL) were mixed in a 96-well plate, incubated at 37° C. for 1 h, added with 50 μL of a substrate CS-01(38) (400 μM), and detected at a wavelength of 405 nm for 60 min, detecting once every minute. • f. 100 μL of Kallikrein (1 nM) and 50 μL of the sulfate gluco-galacto-oligosaccharide sample (1 mg/mL) were mixed in a 96-well plate, incubated 37° C. for 1 h, added with 50 μL of a substrate CS-31(02) (1 mM), and detected at a wavelength of 405 nm for 60 min, detecting once every minute.
(§2) Data processing was conducted using the software Graphpad Prism 6.0. Regression analysis was conducted with the reaction time as an abscissa and the absorbance value at 405 nm as an ordinate.
The calculated inhibition rate=(V0−V1)/V0×100%. […] The degree of sulfation of the sulfate gluco-galacto-oligosaccharide was controlled by controlling the ratio of gluco-galacto-oligosaccharide and sulfating reagent. […] It was seen that the more sulfate groups on average per sugar residue, the higher the inhibition rate of FXa by the sulfate gluco-galacto-oligosaccharide.

Series [2] deals with T1, Thrombin (Homo sapiens, UniProt P00734).
T1 construct: 100 μL of Thrombin (0.2 IU/mL)
In words: Inhibitory activity on thrombin (chromogenic substrate CS-01(38)). The format is biochemical. To be noted: sample 1 mg/mL, incubated at 37° C. for 1 h. Here is the method: as §1, with “100 μL of Thrombin (0.2 IU/mL) and 50 μL of the sulfate gluco-galacto-oligosaccharide sample (1 mg/mL) were mixed in a 96-well plate, incubated at 37° C. for 1 h, added with 50 μL of a substrate CS-01(38) (400 μM), and detected at a wavelength of 405 nm for 60 min, detecting once every minute. • f. 100 μL of Kallikrein (1 nM) and 50 μL of the sulfate gluco-galacto-oligosaccharide sample (1 mg/mL) were mixed in a 96-well plate, incubated 37° C. for 1 h, added with 50 μL of a substrate CS-31(02) (1 mM), and detected at a wavelength of 405 nm for 60 min, detecting once every minute.” left out
as §2

The nature of series [3]: Tail tip bleeding time (bleeding risk). The format is in vivo, C57/BL-6J mice. To be noted: tail vein, mice; for cumulative bleeding time: 10 min after administration, capped at 20 min. As for the experimental part:
(§3) The experimental animals were male C57/BL-6J mice, weighing 18 g to 20 g. The mice were housed under standard experimental conditions with a 12-hour light-12-hour dark cycle with free access to water and food. The mice were anesthetized by intraperitoneal injection of 5% chloral hydrate, and administration of the drug was administered through the tail vein after confirming that the mice were completely anesthetized and had no eyelid reflex. The mice were randomly divided into three groups. A first group was a negative control group and was injected with physiological saline through the tail vein; a second group was a low-dose group, with 0.5 mg/mL sulfate gluco-galacto-oligosaccharide injected into the tail vein; and a third group was a high-dose group, with 1.0 mg/mL sulfate gluco-galacto-oligosaccharide injected into the tail vein.
10 min after administration, the mouse was placed stably with its tail in a naturally straightened state. The mouse tail was cut off 3 mm from the tip, and then immersed in a silanized tube filled with 37° C. physiological saline. Start timing from cutting off the tail tip, 20 min. the accumulated bleeding time t after cutting off the tail tip of the mouse was recorded with a stopwatch. If the bleeding time t was greater than 20 min, it was recorded as 20 min.
Data processing was conducted using the Graphpad Prism 6.0 software. A dot plot of sample concentration was made versus bleeding time. P<0.05 indicated a significant difference.
Bleeding time refers to a duration required from bleeding to natural hemostasis after capillary damage. In the negative control group (physiological saline group), the cumulative bleeding time was 10.35±5.48 min.

Series [4] addresses T2, Coagulation factor FXIIa (Homo sapiens, UniProt P00748).
T2 sequence (P00748 373-615 limits assumed): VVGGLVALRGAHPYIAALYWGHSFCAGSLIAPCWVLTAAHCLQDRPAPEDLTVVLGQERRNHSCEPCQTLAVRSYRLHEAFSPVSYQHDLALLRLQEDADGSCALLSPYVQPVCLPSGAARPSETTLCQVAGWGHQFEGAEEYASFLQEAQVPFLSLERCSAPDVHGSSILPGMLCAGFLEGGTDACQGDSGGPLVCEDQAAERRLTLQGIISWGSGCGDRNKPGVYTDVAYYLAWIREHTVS
The series is described as follows: Inhibitory activity on FXIIa (chromogenic substrate Pefachrome FXIIa/TH5253). The format is biochemical. Particulars: sample 1 mg/mL, incubated at 37° C. for 1 h. Here is the method:
as §1, with “100 μL of Thrombin (0.2 IU/mL) and 50 μL of the sulfate gluco-galacto-oligosaccharide sample (1 mg/mL) were mixed in a 96-well plate, incubated at 37° C. for 1 h, added with 50 μL of a substrate CS-01(38) (400 μM), and detected at a wavelength of 405 nm for 60 min, detecting once every minute. • f. 100 μL of Kallikrein (1 nM) and 50 μL of the sulfate gluco-galacto-oligosaccharide sample (1 mg/mL) were mixed in a 96-well plate, incubated 37° C. for 1 h, added with 50 μL of a substrate CS-31(02) (1 mM), and detected at a wavelength of 405 nm for 60 min, detecting once every minute.” left out
as §2

In series [5] the target is Kallikrein (Homo sapiens, UniProt P03952). In words: Inhibitory activity on kallikrein (chromogenic substrate CS-31(02)). Particulars: sample 1 mg/mL, incubated at 37° C. for 1 h. The format is biochemical. Here is the method: as §1, with “100 μL of Thrombin (0.2 IU/mL) and 50 μL of the sulfate gluco-galacto-oligosaccharide sample (1 mg/mL) were mixed in a 96-well plate, incubated at 37° C. for 1 h, added with 50 μL of a substrate CS-01(38) (400 μM), and detected at a wavelength of 405 nm for 60 min, detecting once every minute. • f. 100 μL of Kallikrein (1 nM) and 50 μL of the sulfate gluco-galacto-oligosaccharide sample (1 mg/mL) were mixed in a 96-well plate, incubated 37° C. for 1 h, added with 50 μL of a substrate CS-31(02) (1 mM), and detected at a wavelength of 405 nm for 60 min, detecting once every minute.” left out
as §2

For series [6], the system named is intrinsic coagulation pathway. In words: Activated partial thromboplastin time (APTT) of plasma from mice after tail vein injection. The format is in vivo, C57/BL-6J mice. Particulars: 0.25, 0.5 and 1.0 mg/mL injected into the tail vein. As for the experimental part: The experimental animals were male C57/BL-6J mice, weighing 18 g to 20 g. The mice were housed under standard experimental conditions with a 12-hour light-12-hour dark cycle with free access to water and food. The mice were anesthetized by intraperitoneal injection of 5% chloral hydrate, and administration of the drug was administered through the tail vein after confirming that the mice were completely anesthetized and had no eyelid reflex. The mice were randomly divided into four groups. […]
Activated partial thromboplastin time (APTT) is a duration required to observe plasma coagulation after adding an APTT reagent and calcium ions to the tested plasma. […] The APTT was measured according to the operating procedures in the kit instructions, and the fibrin formation time was read on the coagulometer. […]
The coagulation time of the physiological saline group was recorded as 1 times, and the multiples of APTT of the sulfate gluco-galacto-oligosaccharide samples with different concentrations relative to the physiological saline group were calculated.

The target of series [7] is T3, HFXIa (human coagulation factor XIa) (Homo sapiens, UniProt P03951).
T3 construct: HFXIa (human coagulation factor XIa, 1 nM)
In words: Inhibitory activity on coagulation factor XIa (chromogenic substrate S2366). The format is biochemical. To be noted: sample 1 mg/mL, incubated at 37° C. for 1 h. As for the experimental part: as §1, with “100 μL of Thrombin (0.2 IU/mL) and 50 μL of the sulfate gluco-galacto-oligosaccharide sample (1 mg/mL) were mixed in a 96-well plate, incubated at 37° C. for 1 h, added with 50 μL of a substrate CS-01(38) (400 μM), and detected at a wavelength of 405 nm for 60 min, detecting once every minute. • f. 100 μL of Kallikrein (1 nM) and 50 μL of the sulfate gluco-galacto-oligosaccharide sample (1 mg/mL) were mixed in a 96-well plate, incubated 37° C. for 1 h, added with 50 μL of a substrate CS-31(02) (1 mM), and detected at a wavelength of 405 nm for 60 min, detecting once every minute.” left out
as §2

Series [8] concerns Trypsin. In words: Inhibitory activity on trypsin (chromogenic substrate CS-11(22)). The format is biochemical. To be noted: sample 1 mg/mL, incubated at 37° C. for 1 h. As for the experimental part: as §1, with “100 μL of Thrombin (0.2 IU/mL) and 50 μL of the sulfate gluco-galacto-oligosaccharide sample (1 mg/mL) were mixed in a 96-well plate, incubated at 37° C. for 1 h, added with 50 μL of a substrate CS-01(38) (400 μM), and detected at a wavelength of 405 nm for 60 min, detecting once every minute. • f. 100 μL of Kallikrein (1 nM) and 50 μL of the sulfate gluco-galacto-oligosaccharide sample (1 mg/mL) were mixed in a 96-well plate, incubated 37° C. for 1 h, added with 50 μL of a substrate CS-31(02) (1 mM), and detected at a wavelength of 405 nm for 60 min, detecting once every minute.” left out
as §2

For series [9], the system named is ferric chloride-induced carotid artery thrombosis. In words: Ferric chloride-induced carotid artery thrombosis model, blood vessel occlusion time. Particulars: tail vein, mice. The format is in vivo, C57/BL-6J mice. As for the experimental part: as §3, with “vein. After tail vein administration, the mouse carotid arteries were dissected, and a filter paper piece (1 mm×2 mm) dipped in 6.0% ferric chloride solution was applied to the outer wall of the mouse carotid artery to allow induction for 3 min to construct a ferric chloride-induced carotid artery thrombosis model.” for “vein.”
The blood flow and thrombosis of the mouse carotid arteries were observed using a laser speckle flow imager, and the mouse carotid arteries were observed under the moorFLPI-2 lens for 15 min. The carotid arteries of the mice at the end of the observation were carefully dissected and stained with HE.
Charts were produced using GraphPad Prism 6.0 software, and statistical differences were analyzed using one-way analysis of variance and Dunnett's multiple comparisons. P<0.05 indicated a significant difference.
Blood vessel occlusion time refers to a duration from removal of the filter paper soaked in ferric chloride to the blood vessel occlusion. If no thrombosis was observed 15 min after removal of the ferric chloride filter paper, 15 min was considered as the vessel occlusion time. Combined with FIG. 3, in the negative control group (physiological saline group), the average blood vessel occlusion time was 4.5±0.23 min. […]

Here are results for six substances from patent US20240285674A1, “USE OF SULFATE GLUCO-GALACTO-OLIGOSACCHARIDE IN PREPARATION OF ANTICOAGULANT AND/OR ANTITHROMBOTIC DRUG” (NANJING UNIVERSITY OF SCIENCE AND TECHNOLOGY, priority 2021, published 2024).

Coagulation factor FXa, sequence (P00742 235-488 limits assumed): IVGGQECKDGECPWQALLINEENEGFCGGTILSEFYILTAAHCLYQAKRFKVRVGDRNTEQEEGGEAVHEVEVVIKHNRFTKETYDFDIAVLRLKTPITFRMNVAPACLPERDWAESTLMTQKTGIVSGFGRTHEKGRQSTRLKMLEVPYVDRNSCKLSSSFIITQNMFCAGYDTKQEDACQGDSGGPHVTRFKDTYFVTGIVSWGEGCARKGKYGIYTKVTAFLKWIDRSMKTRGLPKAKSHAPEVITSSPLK
Coagulation factor FXa, sequence (P00742 41-179 limits assumed): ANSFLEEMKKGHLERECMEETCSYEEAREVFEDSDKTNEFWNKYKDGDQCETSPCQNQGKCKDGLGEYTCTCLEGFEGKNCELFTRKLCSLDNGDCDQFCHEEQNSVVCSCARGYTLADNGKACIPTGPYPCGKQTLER
Kallikrein, sequence (P03952 391-638 limits assumed): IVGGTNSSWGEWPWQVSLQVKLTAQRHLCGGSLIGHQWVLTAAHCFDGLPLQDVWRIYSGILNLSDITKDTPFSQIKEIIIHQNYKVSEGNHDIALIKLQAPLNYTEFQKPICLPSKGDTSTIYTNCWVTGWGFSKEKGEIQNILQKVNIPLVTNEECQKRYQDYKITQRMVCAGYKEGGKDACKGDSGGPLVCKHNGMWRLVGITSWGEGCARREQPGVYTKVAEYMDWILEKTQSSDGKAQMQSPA
Kallikrein, sequence (P03952 20-390 partner limits assumed): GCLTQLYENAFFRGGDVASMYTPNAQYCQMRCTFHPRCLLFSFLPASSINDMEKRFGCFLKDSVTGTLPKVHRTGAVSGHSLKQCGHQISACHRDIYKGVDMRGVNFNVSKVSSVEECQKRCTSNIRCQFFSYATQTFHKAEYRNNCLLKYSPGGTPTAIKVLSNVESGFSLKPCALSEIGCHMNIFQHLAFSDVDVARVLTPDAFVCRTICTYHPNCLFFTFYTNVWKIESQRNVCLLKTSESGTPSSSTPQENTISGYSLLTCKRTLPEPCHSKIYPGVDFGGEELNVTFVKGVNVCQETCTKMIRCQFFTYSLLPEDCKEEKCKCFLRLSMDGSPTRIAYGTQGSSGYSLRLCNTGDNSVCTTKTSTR
T3 sequence (P03951 388-625 limits assumed): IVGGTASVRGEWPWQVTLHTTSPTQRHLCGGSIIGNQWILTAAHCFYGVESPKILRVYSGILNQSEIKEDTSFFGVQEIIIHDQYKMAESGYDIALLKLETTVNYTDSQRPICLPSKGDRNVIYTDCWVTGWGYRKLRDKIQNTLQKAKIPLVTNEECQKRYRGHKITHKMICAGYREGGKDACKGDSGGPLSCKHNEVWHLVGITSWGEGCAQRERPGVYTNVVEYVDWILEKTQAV
T3 sequence (P03951 19-387 limits assumed): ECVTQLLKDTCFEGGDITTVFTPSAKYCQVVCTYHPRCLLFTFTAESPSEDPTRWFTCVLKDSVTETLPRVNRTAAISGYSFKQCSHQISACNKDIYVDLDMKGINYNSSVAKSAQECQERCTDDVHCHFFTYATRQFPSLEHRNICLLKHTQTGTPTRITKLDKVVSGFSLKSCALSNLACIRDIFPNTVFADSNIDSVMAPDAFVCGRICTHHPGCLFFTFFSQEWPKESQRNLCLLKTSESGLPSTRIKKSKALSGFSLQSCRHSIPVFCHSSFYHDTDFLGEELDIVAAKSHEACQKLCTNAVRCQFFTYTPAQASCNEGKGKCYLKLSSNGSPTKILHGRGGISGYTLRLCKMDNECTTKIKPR

For “sulfate gluco-galacto-oligosaccharide [2.52]”, the “Inhibition rate of FXa” value in [1] worked out at 78.4%.
Same read-out and setting: the figure for “sulfate gluco-galacto-oligosaccharide [1.23]” is 39.2%.
As to sulfate gluco-galacto-oligosaccharide, the “Inhibitory effect on Thrombin” value in series [2] is on record as “No inhibition”. The “Difference of cumulative bleeding time from physiological saline group” value in [3] (0.5 mg/mL and 1.0 mg/mL) is “no statistically significant difference”. Also, the cumulative bleeding time in [3] (0.5 mg/mL) is 11.88 ± 4.44 min; in [3] (1.0 mg/mL), 11.60 ± 4.13 min. The “Inhibitory effect on coagulation factor FXa” value in series [1] was “Inhibition”. The “Inhibition rate of FXa” value in series [1] (listed as sulfate gluco-galacto-oligosaccharide with averagely 1.65 sulfate groups per sug) is on record as 57.6%. Further, the “Inhibitory effect on coagulation factor FXIIa” value in [4] is recorded as “No inhibition”. The “Inhibitory effect on Kallikrein” value in [5] is “No inhibition”. Moreover, the “Effect on APTT (plasma coagulation time relative to physiological saline group)” value in [6] was “significant impact on APTT”. In addition, the “Inhibitory effect on coagulation factor FXIa” value in series [7] is “No inhibition”. Further, in [8], the “Inhibitory effect on Trypsin” value is on record as “No inhibition”. Moreover, the “average blood vessel occlusion time” value in series [9] (0.5 mg/mL, observed 15 min) turned out to be 5.4 ± 1.37 min; in series [9] (1.0 mg/mL, 15 min recorded if no thrombosis within 15 min), 15 min. The “Blood flow in carotid artery” value in series [9] (1.0 mg/mL) was “remained unchanged”.
For the substance “gluco-galacto-oligosaccharide [reference compound]”, the “Inhibitory effect on coagulation factor FXa” value in series [1] is recorded as “no inhibitory activity”.
For “sulfate gluco-galacto-oligosaccharide [0.47]”, the “Inhibition rate of FXa” value in [1] is recorded as 10.2%.
On the same count and under the same terms, the figure for “sulfate gluco-galacto-oligosaccharide [2.10]” is 65.5%.
